From PubChem BioAssay (NCI)
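In this assay, cells in 96-well plates receive the compound at five concentrations for 48 hours. Endpoints are linearly interpolated between the surrounding concentrations. Here, GI50 denotes the concentration required for 50% inhibition of growth. At the TGI there is no net growth.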

Columns and labels:
Assay in all cases: NCI anticancer screen, dose series, 48 h
DU-145 prostate = tested on: DU-145 prostate
SK-MEL-28 melanoma = tested on: SK-MEL-28 melanoma
ACHN renal = tested on: ACHN renal
MCF7 breast = tested on: MCF7 breast
BT-549 breast = tested on: BT-549 breast
SF-268 CNS = tested on: SF-268 CNS
HCT-116 colon = tested on: HCT-116 colon
HOP-62 NSCLC = tested on: HOP-62 NSCLC
OVCAR-8 ovarian = tested on: OVCAR-8 ovarian
NCI-H226 lung = tested on: NCI-H226 lung
TK-10 renal = tested on: TK-10 renal
A498 renal = tested on: A498 renal
SW-620 colon = tested on: SW-620 colon
COLO 205 colon = tested on: COLO 205 colon
HCC-2998 colon = tested on: HCC-2998 colon
HT29 colon = tested on: HT29 colon
IGROV1 ovarian = tested on: IGROV1 ovarian
HL-60(TB) leukemia = tested on: HL-60(TB) leukemia
OVCAR-5 ovarian = tested on: OVCAR-5 ovarian
NCI-H460 lung = tested on: NCI-H460 lung
NCI-H522 lung = tested on: NCI-H522 lung
M14 melanoma = tested on: M14 melanoma
SK-MEL-2 melanoma = tested on: SK-MEL-2 melanoma
T-47D breast = tested on: T-47D breast
SF-539 CNS = tested on: SF-539 CNS
PC-3 prostate = tested on: PC-3 prostate
LOX IMVI melanoma = tested on: LOX IMVI melanoma
CCRF-CEM leukemia = tested on: CCRF-CEM leukemia
HOP-92 NSCLC = tested on: HOP-92 NSCLC
MALME-3M melanoma = tested on: MALME-3M melanoma
SN12C renal = tested on: SN12C renal
U251 CNS = tested on: U251 CNS
SNB-75 CNS = tested on: SNB-75 CNS
OVCAR-3 ovarian = tested on: OVCAR-3 ovarian
SK-OV-3 ovarian = tested on: SK-OV-3 ovarian
UACC-62 melanoma = tested on: UACC-62 melanoma
K-562 leukemia = tested on: K-562 leukemia
SNB-19 CNS = tested on: SNB-19 CNS
NCI/ADR-RES ovarian = tested on: NCI/ADR-RES ovarian
MDA-MB-231 breast = tested on: MDA-MB-231 breast
HS 578T breast = tested on: HS 578T breast
HCT-15 colon = tested on: HCT-15 colon
OVCAR-4 ovarian = tested on: OVCAR-4 ovarian
A549 NSCLC = tested on: A549 NSCLC
SK-MEL-5 melanoma = tested on: SK-MEL-5 melanoma
UO-31 renal = tested on: UO-31 renal
SF-295 CNS = tested on: SF-295 CNS
MDA-MB-435 = tested on: MDA-MB-435
SR leukemia = tested on: SR leukemia
786-0 renal = tested on: 786-0 renal
EKVX NSCLC = tested on: EKVX NSCLC
RPMI-8226 leukemia = tested on: RPMI-8226 leukemia
MOLT-4 leukemia = tested on: MOLT-4 leukemia
NCI-H23 lung = tested on: NCI-H23 lung
KM12 colon = tested on: KM12 colon

COc1ccc2cc(C(=O)N3CCC([C@@H](C)C(=O)NCc4ccc5c(c4)OCO5)CC3)[nH]c2c1
GI50 (DU-145 prostate): > 100 µM | TGI (DU-145 prostate): > 100 µM | GI50 (SK-MEL-28 melanoma): > 100 µM | TGI (SK-MEL-28 melanoma): > 100 µM | GI50 (ACHN renal): 48.1 µM | TGI (ACHN renal): > 100 µM | GI50 (MCF7 breast): > 100 µM | TGI (MCF7 breast): > 100 µM | GI50 (BT-549 breast): 43.7 µM | TGI (BT-549 breast): > 100 µM | GI50 (SF-268 CNS): 77.3 µM | TGI (SF-268 CNS): > 100 µM | GI50 (HCT-116 colon): > 100 µM | TGI (HCT-116 colon): > 100 µM | GI50 (HOP-62 NSCLC): 45.9 µM | TGI (HOP-62 NSCLC): > 100 µM | GI50 (OVCAR-8 ovarian): 48.4 µM | TGI (OVCAR-8 ovarian): > 100 µM | GI50 (NCI-H226 lung): > 100 µM | TGI (NCI-H226 lung): > 100 µM | GI50 (TK-10 renal): > 100 µM | TGI (TK-10 renal): > 100 µM | GI50 (A498 renal): > 100 µM | TGI (A498 renal): > 100 µM | GI50 (SW-620 colon): > 100 µM | TGI (SW-620 colon): > 100 µM | GI50 (COLO 205 colon): > 100 µM | TGI (COLO 205 colon): > 100 µM | GI50 (HCC-2998 colon): > 100 µM | TGI (HCC-2998 colon): > 100 µM | GI50 (HT29 colon): > 100 µM | TGI (HT29 colon): > 100 µM | GI50 (IGROV1 ovarian): > 100 µM | TGI (IGROV1 ovarian): > 100 µM | GI50 (HL-60(TB) leukemia): > 100 µM | TGI (HL-60(TB) leukemia): > 100 µM | GI50 (OVCAR-5 ovarian): > 100 µM | TGI (OVCAR-5 ovarian): > 100 µM | GI50 (NCI-H460 lung): > 100 µM | TGI (NCI-H460 lung): > 100 µM | GI50 (NCI-H522 lung): > 100 µM | TGI (NCI-H522 lung): > 100 µM | GI50 (M14 melanoma): > 100 µM | TGI (M14 melanoma): > 100 µM | GI50 (SK-MEL-2 melanoma): > 100 µM | TGI (SK-MEL-2 melanoma): > 100 µM | GI50 (T-47D breast): > 100 µM | TGI (T-47D breast): > 100 µM | GI50 (SF-539 CNS): > 100 µM | TGI (SF-539 CNS): > 100 µM | GI50 (PC-3 prostate): > 100 µM | TGI (PC-3 prostate): > 100 µM | GI50 (LOX IMVI melanoma): 50.1 µM | TGI (LOX IMVI melanoma): > 100 µM | GI50 (CCRF-CEM leukemia): > 100 µM | TGI (CCRF-CEM leukemia): > 100 µM | GI50 (HOP-92 NSCLC): 23.4 µM | TGI (HOP-92 NSCLC): > 100 µM | GI50 (MALME-3M melanoma): > 100 µM | TGI (MALME-3M melanoma): > 100 µM | GI50 (SN12C renal): > 100 µM | TGI (SN12C renal): > 100 µM | GI50 (U251 CNS): > 100 µM | TGI (U251 CNS): > 100 µM | GI50 (SNB-75 CNS): 17.8 µM | TGI (SNB-75 CNS): 78.3 µM | GI50 (OVCAR-3 ovarian): > 100 µM | TGI (OVCAR-3 ovarian): > 100 µM | GI50 (SK-OV-3 ovarian): > 100 µM | TGI (SK-OV-3 ovarian): > 100 µM | GI50 (UACC-62 melanoma): 28.1 µM | TGI (UACC-62 melanoma): > 100 µM | GI50 (K-562 leukemia): 79.4 µM | TGI (K-562 leukemia): > 100 µM | GI50 (SNB-19 CNS): 56.7 µM | TGI (SNB-19 CNS): > 100 µM | GI50 (NCI/ADR-RES ovarian): > 100 µM | TGI (NCI/ADR-RES ovarian): > 100 µM | GI50 (MDA-MB-231 breast): > 100 µM | TGI (MDA-MB-231 breast): > 100 µM | GI50 (HS 578T breast): 27.9 µM | TGI (HS 578T breast): > 100 µM | GI50 (HCT-15 colon): > 100 µM | TGI (HCT-15 colon): > 100 µM | GI50 (OVCAR-4 ovarian): > 100 µM | TGI (OVCAR-4 ovarian): > 100 µM | GI50 (A549 NSCLC): > 100 µM | TGI (A549 NSCLC): > 100 µM | GI50 (SK-MEL-5 melanoma): > 100 µM | TGI (SK-MEL-5 melanoma): > 100 µM | GI50 (UO-31 renal): > 100 µM | TGI (UO-31 renal): > 100 µM | GI50 (SF-295 CNS): 68.5 µM | TGI (SF-295 CNS): > 100 µM | GI50 (MDA-MB-435): 51.2 µM | TGI (MDA-MB-435): > 100 µM | GI50 (SR leukemia): > 100 µM | TGI (SR leukemia): > 100 µM | GI50 (786-0 renal): 36.7 µM | TGI (786-0 renal): > 100 µM | GI50 (EKVX NSCLC): > 100 µM | TGI (EKVX NSCLC): > 100 µM | GI50 (RPMI-8226 leukemia): > 100 µM | TGI (RPMI-8226 leukemia): > 100 µM | GI50 (MOLT-4 leukemia): > 100 µM | TGI (MOLT-4 leukemia): > 100 µM | GI50 (NCI-H23 lung): > 100 µM | TGI (NCI-H23 lung): > 100 µM | GI50 (KM12 colon): > 100 µM | TGI (KM12 colon): > 100 µM
